Data set [1] has as its system human primary fibroblasts AB943. The experiment in a line: Cytotoxicity upon human primary fibroblasts AB943 (resazurin). In kind it is cell-based. The conditions noted are these: Fibroblast, 72 h, mean +/− SD of at least three independent experiments. The protocol: A cellular cytotoxicity evaluation was performed upon human primary fibroblasts AB943, as previously described. The assays were realized in 96-well plates in DMEM + Glutamax without phenol red medium containing 25 mM HEPES, a pH of 7.3, and 10% of fetal calf serum under a 5% CO2 atmosphere, at 37 °C. After trypsin treatment, the AB943 cells were seeded at 2000 cells per well in 100 μL. After 24 h of incubation, drugs diluted in the culture medium were added (100 μL per well). The drug stock solutions were prepared in dimethyl sulfoxide (DMSO). The final DMSO concentration in the cultures remained below 1%. Control cultures were constituted of cultures treated with DMSO instead of the drug. The cytotoxicity assay was based on the conversion of a redo-sensitive dye (resazurin) to a fluorescent product via viable cells. After 72 h of incubation, the resazurin solution was added in each well at a final concentration of 45 μM. The fluorescence was measured at 530 nm excitation and 590 nm emission wavelengths after 4 h of incubation. The percentage of the inhibition of cell growth was calculated by comparing the fluorescence of cells maintained in the presence of the drug to that in the absence of the drug. The concentration causing 50% growth inhibition (IC50) was obtained from the drug concentration–response curve, and the results were expressed as the mean values ± standard deviations determined from several experiments.
(In general: Alamar Blue is a resazurin reagent that responds to reducing activity.)

Data set [2] has as its system CQ-resistant P. falciparum FcB1 strain. The experiment in a line: In vitro growth inhibition of P. falciparum FcB1 ([3H]-hypoxanthine incorporation). In kind it is cell-based, Plasmodium falciparum. The conditions noted are these: for pIC50: Plasmodium falciparum; for Selectivity Index (IC50 AB943/IC50 FcB1): ratio of cytotoxicity IC50 to antiplasmodial IC50 (FcB1). The protocol: (§1) The chloroquine-resistant FcB1/Colombia and Dd2/Indochina strains of Plasmodium falciparum were obtained from the Protist Collection of the National Museum of Natural History, Paris, France (n° MNHN-CEU-2016-224-PfFCB1 and MNHN-CEU-2016-222-PfDD2). The parasites were maintained in vitro on human erythrocytes in RPMI 1640 medium supplemented by 8% (v/v) heat-inactivated human serum, at 37 °C, under an atmosphere of 5% CO2. The human red blood cells and serum were provided by the Établissement Français du Sang under the C-CPSL-UNT approval no. 13/EFS/126. The in vitro drug susceptibility assays were measured by [^3H]-hypoxanthine incorporation, as previously described. The drug stock solutions were prepared in DMSO. Briefly, the assays were performed in 96-well plates. The compounds were diluted in the culture medium (100 μL per well). The parasite cultures (100 μL, 2% parasitaemia, and 1% final hematocrit) were then added to each well and incubated for 24 h at 37 °C prior to the addition of 0.5 μCi of [^3H]- hypoxanthine (GE Healthcare, Paris, France, 1 to 5 Ci·mmol/mL) per well. After a further incubation of 24 h, the plates were frozen and thawed. The cell lysates were then collected onto fiberglass filters and counted in a liquid scintillation spectrometer. The growth inhibition for each drug concentration was determined through a comparison of the radioactivity incorporated in the treated culture with that in the control culture maintained on the same plate. The drugs were first evaluated for a range of fixed concentrations of 50, 5, 0.5, 0.05, and 0.005 μg/mL. […] The IC50 value was obtained from the drug concentration–response curve, and the results were expressed in μM or nM as the mean values ± standard deviations determined from several independent experiments. Artesunate (46) was used as an antimalarial drug control.

The test system of data set [3] is CQ-resistant Dd2 strain of P. falciparum. The experiment in a line: In vitro growth inhibition of P. falciparum Dd2 ([3H]-hypoxanthine incorporation). In kind it is cell-based, Plasmodium falciparum. The conditions noted are these: for pIC50: Plasmodium falciparum, CQ-resistant Dd2, mean +/− SD of at least three independent experiments; for Selectivity Index (IC50 AB943/IC50 Dd2): ratio of cytotoxicity IC50 to antiplasmodial IC50 (Dd2). The protocol: as §1

[4] abbreviates: FCB1, CQ-resistant FcB1, mean +/− standard deviation of independent experiments (at least four in Tables 1-2, at least three in Tables 3-4).
The mark [5] stands for this setting: FCB1, Table 5, single compound (hybrid or AS alone).

pIC50: −log10 of the molar value. “And” between values parts separate entries of the source, which are not always exact repeats. Equal entries are not always repeated.

As to `C[C@@H]1CCC2[C@@H](C)[C@@H](CC(=O)N3CCN(c4cc5c(cc4F)c(=O)c(C(=O)O)cn5C4CC4)CC3)O[C@@H]3O[C@@]4(C)CCC1[C@@]23OO4` (stereo partly drawn) [Compound 12, 1-cyclopropyl-6-fluoro-4-oxo-7-(4-(2-((3R,6R,9R,10R,12R,12aR)-3,6,9-trimethyldecahydro-12H-3,12-epoxy[1,2]dioxepino[4,3-i]isochromen-10-yl)acetyl)piperazin-1-yl)-1,4-dihydroquinoline-3-carboxylic acid], the melting point (usually the temperature of the solid-liquid transition) lay in the range of 123 to 124 °C. In addition, the pIC50 (in general, the negative decadic logarithm of the IC50, by convention in mol/L) in data set [1] is 4.18. Besides, the pIC50 in data set [2] (setting [4]) is 7.83. Further, the “Selectivity Index (IC50 AB943/IC50 FcB1)” value in data set [2] stood at 4453. In data set [3], the pIC50 was 7.49 and the “Selectivity Index (IC50 AB943/IC50 Dd2)” value came to 2034.
The compound `CCCCOC(=O)c1cn(C2CC2)c2cc(N3CCN(C(=O)C[C@H]4O[C@@H]5O[C@@]6(C)CCC7[C@H](C)CCC([C@H]4C)[C@]75OO6)CC3)c(F)cc2c1=O` (stereo partly drawn) [Compound 16, Butyl 1-cyclopropyl-6-fluoro-4-oxo-7-(4-(2-((3R,6R,9R,10R,12R,12aR)-3,6,9-trimethyldecahydro-12H-3,12-epoxy[1,2]dioxepino[4,3-i]isochromen-10-yl)acetyl)piperazin-1-yl)-1,4-dihydroquinoline-3-carboxylate] showed a melting point of 105 to 106 °C. In data set [1], this compound showed a pIC50 of 4.83. For the same compound, the negative-log IC50 (pIC50) in data set [2] (setting [4]) is 8.12. Besides, in data set [2], the “Selectivity Index (IC50 AB943/IC50 FcB1)” value was 2000. Moreover, in data set [3], the pIC50 is 7.62 and the “Selectivity Index (IC50 AB943/IC50 Dd2)” value came out at 622.
For `CCOC(=O)c1cn(CC)c2cc(N3CCN(C(=O)C[C@H]4O[C@@H]5O[C@@]6(C)CCC7[C@H](C)CCC([C@H]4C)[C@]75OO6)CC3)c(F)cc2c1=O` (stereo partly drawn) [Compound 18, Ethyl 1-ethyl-6-fluoro-4-oxo-7-(4-(2-((3R,6R,9R,10R,12R,12aR)-3,6,9-trimethyldecahydro-12H-3,12-epoxy[1,2]dioxepino[4,3-i]isochromen-10-yl)acetyl)piperazin-1-yl)-1,4-dihydroquinoline-3-carboxylate], the melting point was 135.1 to 136 °C. The compound further had a pIC50 in data set [1] of 4.27. Also, the pIC50 in data set [2] (setting [4]) is 7.59. Besides, the “Selectivity Index (IC50 AB943/IC50 FcB1)” value in data set [2] amounted to 2129. In data set [3], the pIC50 is 7.23 and the “Selectivity Index (IC50 AB943/IC50 Dd2)” value was 925.
For `CCCCOC(=O)c1cn(CC)c2cc(N3CCN(C(=O)C[C@H]4O[C@@H]5O[C@@]6(C)CCC7[C@H](C)CCC([C@H]4C)[C@]75OO6)CC3)c(F)cc2c1=O` (stereo partly drawn) [Compound 19, Butyl 1-ethyl-6-fluoro-4-oxo-7-(4-(2-((3R,6R,9R,10R,12R,12aR)-3,6,9-trimethyldecahydro-12H-3,12-epoxy[1,2]dioxepino[4,3-i]isochromen-10-yl)acetyl)piperazin-1-yl)-1,4-dihydroquinoline-3-carboxylate], the melting point lay in the range of 151 to 152 °C. In data set [1], the pIC50 is 4.74. Moreover, the pIC50 in data set [2] (setting [4]) was 7.86. Further, the “Selectivity Index (IC50 AB943/IC50 FcB1)” value in data set [2] is reported as 1294. In data set [3], the pIC50 is 7.42 and the “Selectivity Index (IC50 AB943/IC50 Dd2)” value is recorded as 469.
With `C[C@@H]1CCC2[C@@H](C)[C@H](OC(=O)CCC(=O)N3CCN(c4cc5c(cc4F)c(=O)c(C(=O)O)cn5C4CC4)CC3)O[C@@H]3O[C@@]4(C)CCC1[C@@]23OO4` (stereo partly drawn) [Compound 20, 1-cyclopropyl-6-fluoro-4-oxo-7-(4-(4-oxo-4-(((3R,6R,9R,10S,12R,12aR)-3,6,9-trimethyldecahydro-12H-3,12-epoxy[1,2]dioxepino[4,3-i]isochromen-10-yl)oxy)butanoyl)piperazin-1-yl)-1,4-dihydroquinoline-3-carboxylic acid], the melting point fell in the range of 103.4 to 104.5 °C. The compound further had a pIC50 in data set [1] of 4.38. Further, in data set [2] (setting [4]), the pIC50 is 8.40. In data set [2], the “Selectivity Index (IC50 AB943/IC50 FcB1)” value is 10,318. In data set [3], the pIC50 is 8.10 and the “Selectivity Index (IC50 AB943/IC50 Dd2)” value amounted to 5146.
`CCOC(=O)c1cn(C2CC2)c2cc(N3CCN(C(=O)CCC(=O)O[C@@H]4O[C@@H]5O[C@@]6(C)CCC7[C@H](C)CCC([C@H]4C)[C@]75OO6)CC3)c(F)cc2c1=O` (stereo partly drawn) [Compound 21, Ethyl 1-cyclopropyl-6-fluoro-4-oxo-7-(4-(4-oxo-4-(((3R,6R,9R,10S,12R,12aR)-3,6,9-trimethyldecahydro-12H-3,12-epoxy[1,2]dioxepino[4,3-i]isochromen-10-yl)oxy)butanoyl)piperazin-1-yl)-1,4-dihydroquinoline-3-carboxylate] had a melting point of 115.4 to 116.2 °C. The pIC50 in data set [1] was 4.28. For the same compound, the negative logarithm of the IC50 (pIC50) in data set [2] (setting [4]) was 8.27. The “Selectivity Index (IC50 AB943/IC50 FcB1)” value in data set [2] came to 9826. Also, in data set [3], the pIC50 is 7.80 and the “Selectivity Index (IC50 AB943/IC50 Dd2)” value is listed as 3302.
The compound `CCCCOC(=O)c1cn(C2CC2)c2cc(N3CCN(C(=O)CCC(=O)O[C@@H]4O[C@@H]5O[C@@]6(C)CCC7[C@H](C)CCC([C@H]4C)[C@]75OO6)CC3)c(F)cc2c1=O` (stereo partly drawn) [Compound 22, Butyl 1-cyclopropyl-6-fluoro-4-oxo-7-(4-(4-oxo-4-(((3R,6R,9R,10S,12R,12aR)-3,6,9-trimethyldecahydro-12H-3,12-epoxy[1,2]dioxepino[4,3-i]isochromen-10-yl)oxy)butanoyl)piperazin-1-yl)-1,4-dihydroquinoline-3-carboxylate] yielded a melting point of 128.6 to 129.7 °C. The compound also showed a negative logarithm of the IC50 (pIC50) in data set [1] of 4.41. Further, in data set [2] (setting [4]), the pIC50 was 8.46. Besides, the pIC50 in data set [2] (setting [5]) is 8.46. Moreover, the “Selectivity Index (IC50 AB943/IC50 FcB1)” value in data set [2] is recorded as 11,303. Besides, in data set [3], the pIC50 was 7.89 and the “Selectivity Index (IC50 AB943/IC50 Dd2)” value is reported as 3002.
`CCOC(=O)c1cn(CC)c2cc(N3CCN(C(=O)CCC(=O)O[C@@H]4O[C@@H]5O[C@@]6(C)CCC7[C@H](C)CCC([C@H]4C)[C@]75OO6)CC3)c(F)cc2c1=O` (stereo partly drawn) [Compound 23, Ethyl 1-ethyl-6-fluoro-4-oxo-7-(4-(4-oxo-4-(((3R,6R,9R,10S,12R,12aR)-3,6,9-trimethyldecahydro-12H-3,12-epoxy[1,2]dioxepino[4,3-i]isochromen-10-yl)oxy)butanoyl)piperazin-1-yl)-1,4-dihydroquinoline-3-carboxylate] had a melting point of 140 to 141.1 °C. The pIC50 in data set [1] was 4.36. Besides, in data set [2] (setting [4]), the pIC50 was 8.82. For the same compound, in data set [2] (setting [5]), the pIC50 is 8.82. Besides, the “Selectivity Index (IC50 AB943/IC50 FcB1)” value in data set [2] is 28,000 and 28,382. For the same compound, in data set [3], the pIC50 is 8.46 and the “Selectivity Index (IC50 AB943/IC50 Dd2)” value is on record as 12,488.
`CCCCOC(=O)c1cn(CC)c2cc(N3CCN(C(=O)CCC(=O)O[C@@H]4O[C@@H]5O[C@@]6(C)CCC7[C@H](C)CCC([C@H]4C)[C@]75OO6)CC3)c(F)cc2c1=O` (stereo partly drawn) [Compound 24, Butyl 1-ethyl-6-fluoro-4-oxo-7-(4-(4-oxo-4-(((3R,6R,9R,10S,12R,12aR)-3,6,9-trimethyldecahydro-12H-3,12-epoxy[1,2]dioxepino[4,3-i]isochromen-10-yl)oxy)butanoyl)piperazin-1-yl)-1,4-dihydroquinoline-3-carboxylate]: the melting point was 155 to 156 °C. Besides, the negative-log IC50 (pIC50) in data set [1] was 4.52. In addition, the pIC50 in data set [2] (setting [4]) was 8.72. In addition, the pIC50 in data set [2] (setting [5]) is 8.72. Also, in data set [2], the “Selectivity Index (IC50 AB943/IC50 FcB1)” value is 16,000 and 16,047. In addition, in data set [3], the pIC50 was 8.04 and the “Selectivity Index (IC50 AB943/IC50 Dd2)” value was 3311.

For the origin of these results see PMC10886162, “Synthesis of Novel Artemisinin, Ciprofloxacin, and Norfloxacin Hybrids with Potent Antiplasmodial Activity” (Antibiotics, 2024).
